In patent US10618869B2, “Oligo-benzamide compounds and their use” (The Board of Regents of the University of Texas System, priority 2010, dated 2020):
Entries after “also recorded” stand apart in the source; their conditions may differ.

Assays:
Format in all cases: cell-based
[1] = tested on: PSA-luciferase promoter; experiment: DHT-induced transcription from PSA-luciferase promoter; details: LAPC4 cells
Description: (§1) FIG. 9. […] This effect of D2 could be rescued by overexpression of AR (bottom left panel) or PELP1 (bottom right panel).
(§2) At the protein level, D2, but not D1, was able to block DHT-induced expression of PSA protein. Again, the suppresion of DHT-induced transcription from an ARE could be overcome by overexpression of either AR or PELP1 ([…]). Overexpression of PELP1 was able to rescue the D2-mediated suppression of DHT-induced transcription nearly back to baseline.

[2] = tested on: PCa cells; experiment: EGF or LPA-induced proliferation of PCa cells (MTT assay); details: peptidomimetic added 2 hours prior
Description: FIG. 11. […] D2 does block DHT-induced proliferation of prostate cancer cells.
(§3) In this experiment, cells were plated (2-10×10^3/well) in 96 well plates and subjected to androgen deprivation for 48 hours with phenol-red free RPMI and 1% charcoal stripped fetal bovine serum (CSF). Cells were then treated with either ethanol, EGF or DHT as a positive control for 48 hours. Peptidomimetics were added 2 hours prior to treatment. Cell proliferation was measured using the MTT colorimetric assay.

[3] = tested on: ARE-luciferase reporter; experiment: DHT-induced transcription from minimal ARE-luciferase reporter; details: LNCaP, CWR22v1 and LAPC4 cell lines
Description: as §1, §2

[4] = tested on: erk; experiment: DHT-mediated non-genomic activation of erk; details: FIG. 12
[5] = biological target: T1, interaction between AR and hsp90 (Homo sapiens, UniProt P10275); experiment: AR-hsp90 interaction (co-immunoprecipitation); details: hsp90 lacks a LXXLL motif
T1 construct: endogenous in cells; host or cells: prostate cancer cells
T1 sequence (P10275 1-920): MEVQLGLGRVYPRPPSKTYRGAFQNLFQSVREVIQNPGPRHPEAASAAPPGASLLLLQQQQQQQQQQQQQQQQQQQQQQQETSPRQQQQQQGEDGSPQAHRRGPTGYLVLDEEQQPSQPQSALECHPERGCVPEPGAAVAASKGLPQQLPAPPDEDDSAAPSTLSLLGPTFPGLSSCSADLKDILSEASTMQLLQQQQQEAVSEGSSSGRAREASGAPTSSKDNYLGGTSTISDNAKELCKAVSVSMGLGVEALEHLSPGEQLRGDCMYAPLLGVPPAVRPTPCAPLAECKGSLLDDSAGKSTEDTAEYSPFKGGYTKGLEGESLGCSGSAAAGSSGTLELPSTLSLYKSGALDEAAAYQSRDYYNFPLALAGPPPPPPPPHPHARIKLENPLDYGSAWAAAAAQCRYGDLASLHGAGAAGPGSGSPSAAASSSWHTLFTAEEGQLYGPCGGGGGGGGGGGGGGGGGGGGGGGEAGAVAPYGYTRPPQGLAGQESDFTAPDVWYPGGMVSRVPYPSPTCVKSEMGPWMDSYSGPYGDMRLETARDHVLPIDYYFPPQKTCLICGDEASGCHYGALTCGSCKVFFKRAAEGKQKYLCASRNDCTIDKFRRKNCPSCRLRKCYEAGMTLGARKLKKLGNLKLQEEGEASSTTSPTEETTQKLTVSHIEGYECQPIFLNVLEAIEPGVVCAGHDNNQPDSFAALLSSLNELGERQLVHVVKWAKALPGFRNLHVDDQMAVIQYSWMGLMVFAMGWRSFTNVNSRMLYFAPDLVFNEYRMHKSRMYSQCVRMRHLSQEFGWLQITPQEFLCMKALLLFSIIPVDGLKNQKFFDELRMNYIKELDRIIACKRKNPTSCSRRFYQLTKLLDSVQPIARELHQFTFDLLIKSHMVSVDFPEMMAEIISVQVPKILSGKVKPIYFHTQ

[6] = tested on: PCa cell lines that contain AR; experiment: DHT-induced proliferation of prostate cancer cells (MTT assay)
Description: FIGS. 10A-E. D2 blocks proliferation of prostate cancer cells in vitro and in vivo (a) Effect of pretreatment with 100 nM of D1 and D2 on DHT-induced proliferation in multiple prostate cancer cell lines in MTT assay. Numbers are normalized to a baseline of 100, which represents the untreated rate of proliferation. (b) Effect of pretreatment with 100 nM of D1 and D2 on DHT-induced proliferation in LNCaPcells on a Cyquant assay. (c) Dose dependent curve of D2 on proliferation of LAPC4 cells. (d) Rescue of DHT induced proliferation by overexpression of PELP1 following suppression of DHT induced proliferation with 100 nM of D2. (e). Effect of direct intratumoral injections of D1 and D2 on the proliferation of prostate cancer xenografts in animal models: Following establishment of subcutaneous xenografts in animal models, daily direct intratumoral injections of D1 and D2 were performed. Bioluminesence imaging was used to track the growth of the tumors and the effect of D1 and D2 quantitated as shown in the graph.
The importance of PELP1 and AR interaction on DHT-mediated proliferation of prostate cancer cells were confirmed using rescue experiments, where D2 suppression of DHT-mediated proliferation was overcome by overexpression of PELP1 in LNCaP PCa cells.
as §3
as §3, with “Cells” for “In this experiment, cells”, “96-well” for “96 well”, “ethanol” for “ethanol, EGF”, “hours” for “hours.”

[7] = tested on: DHT-regulated transcripts; experiment: DHT-regulated transcripts, Illumina platform, LNCaP cells; details: of the 341 transcripts significantly upregulated by DHT
Description: FIG. 8. Effect of D2 on DHT-induced transcription: RNA from LNCaP cells untreated or treated with DHT in the absence and presence of D2 were evaluated by the Illumina platform for DHT-regulated transcripts. […] Expression levels of selected genes are shown in the right panel, including AR-regulated genes and those involved in cell proliferation.
FIG. 8 confirms these findings by QPCR experiment evaluating the effect of D1 and D2 on DHT-induced TMPRSS and PSA gene expression at the RNA level in LNCaP cells (bottom left panel) and by western blot analyses as evaluated by the effect of D1 and D2 on the expression of PSA, androgen receptor and actin in LAPC4 cells at the protein level. […] Confirmation of these findings were obtained by QPCR and western blot analyses.

SMILES: COC(=O)c1ccc(NC(=O)c2ccc([N+](=O)[O-])c(OCC(C)C)c2)c(OCC(C)C)c1 [D2]
- DHT-induced transcription from PSA-luciferase promoter [1]: able to block; also recorded: block DHT-Induced gene expression
- EGF or LPA-induced proliferation of PCa cells [2]: no effect; also recorded: does not affect
- DHT-induced transcription from minimal ARE-luciferase reporter [3]: able to block; also recorded: block DHT-Induced gene expression
- DHT-mediated non-genomic activation of erk [4]: no effect; also recorded: does not block
- interaction between AR and hsp90 [5]: not able to affect
- activity on the proliferation of prostate cancer cells (FIGS. 17, 19A-N) ([6]; DHT-induced proliferation, MTT assay, structure-function series): good activity
- DHT-induced proliferation of PCa cells ([6]; LNCaP, LAPC4, C4-2, RWPE-1, CWR22v1, VCaP, MDAPCa 2b, pretreatment (100 nM in FIG. 10)): prevented; also recorded: does block
- IC50 ([6]; MTT assays, in vitro, read-out: IC50, DHT-mediated proliferation of PCa cells): ~40 nM
- DHT-upregulated genes reduced back to baseline [7]: 219 genes
